In PMC6705239 (ACS Omega, 2019):
“Also recorded” adds a separate entry of the source.

Tests used:
in vitro = conditions: dog
[1] = system: Influenza A virus H1N1 (H1N1A/Weiss/43); experiment: microbe, parasite or virus in culture; type: cell-based; conditions: for EC50: 72 h
[2] = system: NA from influenza A virus H1N1; type: biochemical
influenza A virus H1N1 = system: influenza A virus H1N1; design: species or system SPF KM mice; conditions: mouse, in vivo

`COC1=C(c2ccc(Cl)cc2)C(=O)OC1(C)C(O)c1ccccn1` (stereo not drawn) [Compound 47] gave a CC50 (in vitro) of 155 ± 6.8 µM.

`COC1=C(c2ccccc2F)C(=O)OC1(C)OC` (stereo not drawn) [Compound 29, 2-(2-fluorophenyl)-3,4-dimethoxy-4-methylbutenolide] showed a CC50 (in vitro) of 204 ± 3.2 µM.

`NC(=O)c1ncn([C@@H]2O[C@H](CO)[C@@H](O)[C@H]2O)n1` [Ri, Ribavirin, reference compound] showed an EC50 ([1]; Influenza A virus, H1N1, MDCK) of 105 ± 51 µM and a CC50 (in vitro) of 532 ± 20.3 µM.

Work on `COC1=C(c2ccc(Cl)cc2)C(=O)OC1(C)OC` (stereo not drawn) [Compound 24, 2-(4-chlorophenyl)-3,4-dimethoxy-4-methylbutenolide] yielded a CC50 (in vitro) of 98.3 ± 3.5 µM.

For `COC1=C(c2ccc(Br)cc2)C(=O)OC1(C)OC` (stereo not drawn) [Compound 25, 2-(4-bromophenyl)-3,4-dimethoxy-4-methylbutenolide], the EC50 ([1]; Influenza A virus, H1N1, MDCK) was 61.1 ± 5 µM, the IC50 ([1]; Influenza A virus, H1N1, MDCK, read-out: IC50 for inhibiting influenza A virus H1N1) was 61 µM and the CC50 (in vitro) was 266 ± 18.4 µM.

`COC1(C)OC(=O)C(c2ccc(F)cc2)=C1N1CCOCC1` (stereo not drawn) [Compound 57] gave an EC50 ([1]; Influenza A virus, H1N1, MDCK) of 14.3 ± 1.7 µM and a CC50 (in vitro) of 776 ± 63.2 µM.

With `COc1ccc(C2=C(N3CCOCC3)C(C)(OC)OC2=O)cc1` (stereo not drawn) [Compound 37, 2-(4-methoxyphenyl)-4-methoxy-4-methyl-3-morpholinobutenolide] the “antivirus activity against influenza A H1N1 (in words)” value [1] was “dose-dependent; also recorded: better antivirus activity than positive control ribavirin”, the EC50 ([1]; Influenza A virus, H1N1, MDCK) was 6.7 ± 1.3 µM and the “inhibition rate of NA activity (in words)” value [2] was “increased in a dose-dependent manner”. For the same compound, the “body temperature after virus infection” value (influenza A virus H1N1) was “closed to the control groups”, the “body weight after virus infection” value (influenza A virus H1N1) was “kept increasing” and the “gross lesions in lungs” value (influenza A virus H1N1) was “less lesion”. For the same compound, the “lung histopathology (H&E staining)” value (influenza A virus H1N1) was “less lung inflammation and lesions”, the “viral load / expression of virus gene in lung tissue by qRT-PCR” value (influenza A virus H1N1) was “inhibit the expression of the influenza A virus gene in the lung; also recorded: Lower viral loads; also recorded: lower than that of the model group” and the CC50 (in vitro) was 536 ± 15.1 µM.

`COC1=C(c2ccc(F)c(F)c2)C(=O)OC1(C)OC` (stereo not drawn) [Compound 30, 2-(3,4-difluorophenyl)-3,4-dimethoxy-4-methylbutenolide] gave an EC50 ([1]; Influenza A virus, H1N1, MDCK) of 33.4 ± 1 µM and a CC50 (in vitro) of 109 ± 7.6 µM.

For `COC1=C(c2ccc(Cl)cc2)C(=O)OC1(C)C(O)c1ccc(N2CCOCC2)cc1` (stereo not drawn) [Compound 48], the CC50 (in vitro) was 130 ± 8.1 µM.

In the case of `COC1(C)OC(=O)C(c2cccc(F)c2)=C1N1CCOCC1` (stereo not drawn) [Compound 60], the CC50 (in vitro) is reported as 147 ± 8.1 µM.

For `COC1=C(c2ccccc2)C(=O)OC1(C)OC` (stereo not drawn) [Compound 22, 3,4-dimethoxy-4-methyl-2-phenylbutenolide], the EC50 ([1]; Influenza A virus, H1N1, MDCK) was 26.3 ± 4.4 µM and the CC50 (in vitro) was 168 ± 9.7 µM.

`COC1=C(c2ccc(Cl)cc2)C(=O)OC1(C)C(O)c1ccc(C)cc1` (stereo not drawn) [Compound 46] gave a CC50 (in vitro) of 75.2 ± 3.6 µM.

For `COC1=C(c2ccc(C)cc2)C(=O)OC1(C)OC` (stereo not drawn) [Compound 26, 3,4-dimethoxy-4-methyl-2-(p-tolyl) butenolide], the CC50 (in vitro) was 184 ± 5.1 µM.

With `COC1=C(c2cccc(F)c2)C(=O)OC1(C)OC` (stereo not drawn) [Compound 28, 2-(3-fluorophenyl)-3,4-dimethoxy-4-methylbutenolide] the EC50 ([1]; Influenza A virus, H1N1, MDCK) was 9.4 ± 0.8 µM and the CC50 (in vitro) was 19.8 ± 1 µM.

Work on `COC1(C)OC(=O)C(c2ccc(Cl)cc2)=C1N1CCOCC1` (stereo not drawn) [Compound 58] yielded an EC50 ([1]; Influenza A virus, H1N1, MDCK) of 34.7 ± 5.9 µM and a CC50 (in vitro) of 209 ± 14.1 µM.

Compound `CCOC(=O)C1=C[C@@H](OC(CC)CC)[C@H](NC(C)=O)[C@@H](N)C1` [Os, Oseltamivir, reference compound] has an EC50 ([1]; Influenza A virus, H1N1, MDCK) of 0.28 ± 0.05 µM and a CC50 (in vitro) greater than 800 µM.
